Assay results published in patent US12459914B2, “Compounds and compositions for the treatment of tumors” (FONDAZIONE ISTITUTO ITALIANO DI TECNOLOGIA, priority 2019, dated 2025).

Assays:
BRC4/RAD51 interaction = molecular target: T1, BRC4/RAD51 interaction (Homo sapiens, UniProt Q06609); test: Competitive ELISA assay, disruption of BRC4/RAD51 interaction; format: binding; details: human Rad51, biotinylated BRC4 peptide
T1 construct: purchased Creative Biomart (Rad51); Life Technologies (BRC4 peptide)
T1 sequence (Q06609 1-339): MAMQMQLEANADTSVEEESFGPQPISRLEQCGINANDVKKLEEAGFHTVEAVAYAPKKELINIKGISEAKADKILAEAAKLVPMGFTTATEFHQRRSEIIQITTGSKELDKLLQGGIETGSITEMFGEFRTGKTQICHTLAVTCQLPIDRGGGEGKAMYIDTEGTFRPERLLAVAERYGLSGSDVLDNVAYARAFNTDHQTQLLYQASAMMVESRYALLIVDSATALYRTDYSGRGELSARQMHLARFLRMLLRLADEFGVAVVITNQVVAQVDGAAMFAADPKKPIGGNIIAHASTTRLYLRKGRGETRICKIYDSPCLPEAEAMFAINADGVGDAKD
Method: A competitive ELISA screening assay using biotinylated BRC4 peptide to disrupt the BRC4/RAD51 interaction was performed by modifying the method described by Rajendra et al. (Nucleic Acids Res. 38 (2010) 82-96). BRC4-biotinylated peptide (N-term Biotin[…] from Life Technologies) was used to coat 384-well plates (Nunc). After washing with PBS containing 0.05% Tween-20 (PBST), and blocking with the solution BSA 1%/PBST, overnight hybridization with human Rad51 protein (NP_002866 Creative Biomart, NY) was performed. Test compounds were added in dose-response from […] in triplicate with constant DMSO 1%. Antibody raised against Rad51 (Millipore) and HRP-secondary antibody staining to develop the 3,30,5,50-tetramethyllbenzidine signal (Sigma) quenched with 1M HCl was used as the assay readout. Colorimetric measure was read on Victor5 (PerkinElmer) plate Reader. BRC4 and Rad51 were included in the assay as positive control. Results were analyzed using GraphPad Software.

BxPC-3 cells = test: Cell viability assay (CellTiter Glo); format: cell-based; details: Homo sapiens, 72 h
Method: BxPC-3 cells were grown in RPMI 1640 containing 10% FBS, 100 U/ml penicillin/streptomycin, 2 mM glutamine. All media and supplements were from Sigma-Aldrich. Cultures were routinely tested for Mycoplasma contamination. Treatments (Olaparib and BRCA2-Rad51 disruptors) were administered in culture medium supplemented with 0.6% DMSO. The same amount of DMSO was added to the control, untreated cultures.
Cell viability was assessed by CellTiter Glo, Luminescent Cell Viability Assay. Briefly, BxPC-3 cells (1×10^4/well) were plated in white 96-well plates with clear bottom and treated for 72 h with olaparib (10 μM) or with the BRCA2-Rad51 disruptors, given alone or in combination. After treatments, the plate was allowed to equilibrate at room temperature for 30 min and the CellTiter-Glo reactive was directly added to each well. The plate was kept on a shaker for 2 min to induce cell lysis and its luminescence was measured by using a Fluoroskan Ascent FL reader (Labsystems) using manufacturer's instructions.

EC50 (BRC4/RAD51 interaction) [µM] | EC50 (BxPC-3 cells) [µM] | SMILES
16 | 48 | O=C(O)CCC(=O)N1N=C(c2c(-c3ccccc3)c3cc(Cl)ccc3[nH]c2=O)CC1c1ccc(Br)cc1 (centres unmarked) [d.8, 4-[3-(4-bromophenyl)-5-(6-chloro-2-oxo-4-phenyl-1H-quinolin-3-yl)-3,4-dihydropyrazol-2-yl]-4-oxo-butanoic acid]
38 | 18 | CC(=O)N1N=C(c2c(-c3ccccc3)c3cc(Cl)ccc3[nH]c2=O)CC1c1ccc(Br)cc1 (centres unmarked) [d.9, 3-[2-acetyl-3-(4-bromophenyl)-3,4-dihydropyrazol-5-yl]-6-chloro-4-phenyl-1H-quinolin-2-one]
> 100 | 71.2 | CC(C)(C)c1ccc(C2CC(c3c(-c4ccccc4)c4cc(Cl)ccc4[nH]c3=O)=NN2C(=O)CCC(=O)O)cc1 (centres unmarked) [d.16, 4-[3-(4-tert-butylphenyl)-5-(6-chloro-2-oxo-4-phenyl-1H-quinolin-3-yl)-3,4-dihydropyrazol-2-yl]-4-oxo-butanoic acid]
> 100 | 23 | CC(=O)N1N=C(c2c(-c3ccccc3)c3cc(Cl)ccc3[nH]c2=O)CC1c1ccco1 (centres unmarked) [d.21, 3-[2-acetyl-3-(2-furyl)-3,4-dihydropyrazol-5-yl]-6-chloro-4-phenyl-1H-quinolin-2-one]
10 | > 40 | CCn1ccc2cc(C3CC(c4c(-c5ccccc5)c5cc(Cl)ccc5[nH]c4=O)=NN3C(=O)CCC(=O)O)ccc21 (centres unmarked) [d.24, 4-[5-(6-chloro-2-oxo-4-phenyl-1H-quinolin-3-yl)-3-(1-ethylindol-5-yl)-3,4-dihydropyrazol-2-yl]-4-oxo-butanoic acid]
13 | > 50 | Cn1ncc2cc(C3CC(c4c(-c5ccccc5)c5cc(Cl)ccc5[nH]c4=O)=NN3C(=O)CCC(=O)O)ccc21 (centres unmarked) [d.26, 4-[5-(6-chloro-2-oxo-4-phenyl-1H-quinolin-3-yl)-3-(1-methylindazol-5-yl)-3,4-dihydropyrazol-2-yl]-4-oxo-butanoic acid]
> 100 | > 100 | Cn1cc2cc(C3CC(c4c(-c5ccccc5)c5cc(Cl)ccc5[nH]c4=O)=NN3C(=O)CCC(=O)O)ccc2n1 (centres unmarked) [d.28, 4-[5-(6-chloro-2-oxo-4-phenyl-1H-quinolin-3-yl)-3-(2-methylindazol-5-yl)-3,4-dihydropyrazol-2-yl]-4-oxo-butanoic acid]
> 100 | > 50 | CCn1ncc2cc(C3CC(c4c(-c5ccccc5)c5cc(Cl)ccc5[nH]c4=O)=NN3C(=O)CCC(=O)O)ccc21 (centres unmarked) [d.31, 4-[5-(6-chloro-2-oxo-4-phenyl-1H-quinolin-3-yl)-3-(1-ethylindazol-5-yl)-3,4-dihydropyrazol-2-yl]-4-oxo-butanoic acid]
> 100 | > 100 | CCCn1ncc2cc(C3CC(c4c(-c5ccccc5)c5cc(Cl)ccc5[nH]c4=O)=NN3C(=O)CCC(=O)O)ccc21 (centres unmarked) [d.33, 4-[5-(6-chloro-2-oxo-4-phenyl-1H-quinolin-3-yl)-3-(1-propylindazol-5-yl)-3,4-dihydropyrazol-2-yl]-4-oxo-butanoic acid]

Further lines, the molecule ahead of its results:

SMILES | EC50 (BRC4/RAD51 interaction) [µM] | EC50 (BxPC-3 cells) [µM]
COc1ccc(C2CC(c3c(-c4ccccc4)c4cc(Cl)ccc4[nH]c3=O)=NN2C(=O)CCC(=O)O)cc1 (centres unmarked) [d.11, 4-[5-(6-chloro-2-oxo-4-phenyl-1H-quinolin-3-yl)-3-(4-methoxyphenyl)-3,4-dihydropyrazol-2-yl]-4-oxo-butanoic acid] | > 100 | > 50
O=C(O)CCC(=O)N1N=C(c2c(-c3ccccc3)c3cc(Cl)ccc3[nH]c2=O)CC1c1ccc(C(F)(F)F)cc1 (centres unmarked) [d.14, 4-[5-(6-chloro-2-oxo-4-phenyl-1H-quinolin-3-yl)-3-[4-(trifluoromethyl)phenyl]-3,4-dihydropyrazol-2-yl]-4-oxo-butanoic acid] | 29 | 50
CC(=O)N1N=C(c2c(-c3ccccc3)c3cc(Cl)ccc3[nH]c2=O)CC1c1ccc(C(F)(F)F)cc1 (centres unmarked) [d.15, 3-[2-acetyl-3-[4-(trifluoromethyl)phenyl]-3,4-dihydropyrazol-5-yl]-6-chloro-4-phenyl-1H-quinolin-2-one] | > 100 | 11.4
CC(=O)N1N=C(c2c(-c3ccccc3)c3cc(Cl)ccc3[nH]c2=O)CC1c1ccc(C(C)(C)C)cc1 (centres unmarked) [d.17, 3-[2-acetyl-3-(4-tert-butylphenyl)-3,4-dihydropyrazol-5-yl]-6-chloro-4-phenyl-1H-quinolin-2-one] | 15 | 15
COc1ccc(C2CC(c3c(-c4ccccc4)c4cc(Cl)ccc4[nH]c3=O)=NN2C(=O)CCC(=O)O)cc1F (centres unmarked) [d.18, 4-[5-(6-chloro-2-oxo-4-phenyl-1H-quinolin-3-yl)-3-(3-fluoro-4-methoxy-phenyl)-3,4-dihydropyrazol-2-yl]-4-oxo-butanoic acid] | > 100 | 73
COc1ccc(-c2c(C3=NN(C(=O)CCC(=O)O)C(c4ccc(F)cc4)C3)c(=O)[nH]c3ccc(Cl)cc23)cc1 (centres unmarked) [d.19, 4-[5-[6-chloro-4-(4-methoxyphenyl)-2-oxo-1H-quinolin-3-yl]-3-(4-fluorophenyl)-3,4-dihydropyrazol-2-yl]-4-oxo-butanoic acid] | > 100 | 76
O=C(O)CCC(=O)N1N=C(c2c(-c3ccccc3)c3cc(Cl)ccc3[nH]c2=O)CC1c1ccco1 (centres unmarked) [d.20, 4-[5-(6-chloro-2-oxo-4-phenyl-1H-quinolin-3-yl)-3-(2-furyl)-3,4-dihydropyrazol-2-yl]-4-oxo-butanoic acid] | > 100 | > 100
CC(=O)N1N=C(c2c(-c3ccccc3)c3cc(Cl)ccc3[nH]c2=O)CC1c1ccc2c(ccn2C)c1 (centres unmarked) [d.23, 3-[2-acetyl-3-(1-methylindol-5-yl)-3,4-dihydropyrazol-5-yl]-6-chloro-4-phenyl-1H-quinolin-2-one] | 18 | 4.8
CC(=O)N1N=C(c2c(-c3ccccc3)c3cc(Cl)ccc3[nH]c2=O)CC1c1ccc2c(cnn2C)c1 (centres unmarked) [d.27, 3-[2-acetyl-3-(1-methylindazol-5-yl)-3,4-dihydropyrazol-5-yl]-6-chloro-4-phenyl-1H-quinolin-2-one] | 9 | 21
CCn1cc2cc(C3CC(c4c(-c5ccccc5)c5cc(Cl)ccc5[nH]c4=O)=NN3C(=O)CCC(=O)O)ccc2n1 (centres unmarked) [d.29, 4-[5-(6-chloro-2-oxo-4-phenyl-1H-quinolin-3-yl)-3-(2-ethylindazol-5-yl)-3,4-dihydropyrazol-2-yl]-4-oxo-butanoic acid] | 28 | > 50
CCn1cc2cc(C3CC(c4c(-c5ccccc5)c5cc(Cl)ccc5[nH]c4=O)=NN3C(C)=O)ccc2n1 (centres unmarked) [d.30, 3-[2-acetyl-3-(2-ethylindazol-5-yl)-3,4-dihydropyrazol-5-yl]-6-chloro-4-phenyl-1H-quinolin-2-one] | > 100 | 16.8
CCCn1cc2cc(C3CC(c4c(-c5ccccc5)c5cc(Cl)ccc5[nH]c4=O)=NN3C(=O)CCC(=O)O)ccc2n1 (centres unmarked) [d.35, 4-[5-(6-chloro-2-oxo-4-phenyl-1H-quinolin-3-yl)-3-(2-propylindazol-5-yl)-3,4-dihydropyrazol-2-yl]-4-oxo-butanoic acid] | > 100 | 62.6
O=C(O)CCC(=O)N1N=C(c2c(-c3ccccc3)c3cc(Cl)ccc3[nH]c2=O)CC1c1ccc(-c2ccc(F)cc2)cc1 (centres unmarked) [d.36, 4-[5-(6-chloro-2-oxo-4-phenyl-1H-quinolin-3-yl)-3-[4-(4-fluorophenyl)phenyl]-3,4-dihydropyrazol-2-yl]-4-oxo-butanoic acid] | 13 | 31
